Measurements reported in patent US20060069132A1, “Azolecarboxamide herbicides” (priority 2004, published 2006).

How the values were obtained:
[1] = system: yellow nutsedge; assay: Test C pre-/postemergence herbicide test; format: in vivo, Cyperus esculentus
In short: (§1)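 Visual injury scores run from 0 (no effect) to 100 (complete control), assessed relative to untreated controls 12 to 14 days after treatment in the greenhouse. Chemicals were formulated in a non-phytotoxic solvent mixture with surfactant and applied to soil after planting or to emerged plants at the 1- to 4-leaf stage.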

[2] = system: cocklebur; assay: Test C pre-/postemergence herbicide test; format: in vivo, Xanthium strumarium
In short: as §1

[3] = system: johnsongrass; assay: Test C pre-/postemergence herbicide test; format: in vivo, Sorghum halepense
In short: as §1

[4] = system: Surinam grass; assay: Test B pre-/postemergence herbicide test; format: in vivo, Urochloa decumbens
In short: (§2)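 Seeds were planted and treated preemergence with compounds formulated in a non-phytotoxic solvent mixture containing surfactant, while plants at the 1- to 4-leaf stage (2 to 18 cm) received postemergence sprays. Flooded paddy plants were grown to the 2-leaf stage. After 13 to 15 days in a greenhouse, injury was visually rated 0–100 against untreated controls.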

[5] = system: eastern black nightshade; assay: Test C pre-/postemergence herbicide test; format: in vivo, Solanum ptycanthum; settings: for Plant response rating (0 = no effect, 100 = complete control), Nightshade / Plant response rating, Nightshade: preemergence; for Nightshade plant response rating: Preemergence, scale 0 to 100, 0 no effect, 100 complete control
In short: as §1

[6] = system: morningglory; assay: Test C pre-/postemergence herbicide test; format: in vivo, Ipomoea coccinea; parameters: key to Plant response rating, Morningglory: 0 = no effect, 100 = complete control
In short: as §1

[7] = system: large crabgrass; assay: Test B pre-/postemergence herbicide test; format: in vivo, Digitaria sanguinalis; settings: for Plant response rating, Crabgrass, Large: visual rating after 13 to 15 days
In short: as §2

[8] = system: barnyardgrass; assay: Test C flooded paddy test; format: in vivo, Echinochloa crus-galli; settings: for Plant response rating, Barnyardgrass: visual rating after 12 to 14 days
In short: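 Postemergence sprays were applied to plants 2 to 18 cm tall (1- to 4-leaf stage); in the flooded paddy test, barnyardgrass was grown to the 2-leaf stage. After 12 to 14 days in a greenhouse, injury was visually rated against untreated controls on a 0–100 scale (100 = complete control).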

[9] = system: large crabgrass; assay: Test C pre-/postemergence herbicide test; format: in vivo, Digitaria sanguinalis
In short: as §1

[10] = 250 g ai/ha, scale 0 to 100 (0 no effect, 100 complete control), visual, 12 to 14 days, preemergence
[11] = Postemergence, 500 g ai/ha, scale 0 to 100
[12] = Postemergence, 250 g ai/ha, scale 0 to 100, 0 no effect, 100 complete control
[13] = Preemergence, 500 g ai/ha, scale 0 to 100, 0 no effect, 100 complete control
[14] = postemergence, 125 g ai/ha, scale 0 to 100
[15] = postemergence, 62 g ai/ha, scale 0 to 100
[16] = 125 g ai/ha, scale 0-100, preemergence
[17] = Postemergence, 125 g ai/ha, scale 0 to 100, 0 no effect, 100 complete control
[18] = Postemergence, 500 g ai/ha, visual rating after 13 to 15 days, scale 0 (no effect) to 100 (complete control)
[19] = Preemergence, 500 g ai/ha, scale 0 to 100
[20] = preemergence, 125 g ai/ha, 0 to 100 scale, 0 is no effect, 100 is complete control
[21] = 250 g ai/ha, scale 0 to 100 (0 no effect, 100 complete control), visual, 12 to 14 days
[22] = Postemergence, 125 g ai/ha, scale 0 (no effect) to 100 (complete control)
[23] = Postemergence, 500 g ai/ha, scale 0 (no effect) to 100 (complete control)
[24] = 62 g ai/ha, scale 0 to 100 (0 no effect, 100 complete control)
[25] = 125 g ai/ha, scale of 0 to 100, 0 is no effect, 100 is complete control
[26] = 250 g ai/ha, scale 0 to 100 (0 no effect, 100 complete control)
[27] = 500 g ai/ha, scale 0 to 100 (0 no effect, 100 complete control)
[28] = 62 g ai/ha, preemergence, scale 0 to 100
[29] = 500 g ai/ha, scale 0 to 100 (0 no effect, 100 complete control), visual, 12 to 14 days, preemergence
[30] = 250 g ai/ha, scale 0-100, preemergence
[31] = 125 g ai/ha, 0 is no effect, 100 is complete control, preemergence

C=Cn1nc(C(C)(C)C)cc1C(=O)Nc1cccc(C(=O)N(CC)CC)c1 [Compound 34]
90: Plant response rating, Nightshade [5, 21]
70: Cocklebur plant response rating [2, 11] | Plant response rating, Johnsongrass [3, 17] | Plant response rating, Johnsongrass [3, 12] | Plant response rating, Johnsongrass [3, 15]
40: Morningglory plant response rating [6, 11] | Plant response rating, Crabgrass, Large [9, 17]
60: Crabgrass, Large plant response rating [9, 11] | Plant response rating, Crabgrass, Large [9, 12]
35: Barnyardgrass plant response rating [8, 25]
100: Plant response rating, Johnsongrass [3, 10] | Johnsongrass plant response rating [3, 13] | Nightshade plant response rating ([5]; 500 g ai/ha) | Morningglory plant response rating [6, 13] | Crabgrass, Large plant response rating [7, 19] | Plant response rating, Crabgrass, Large [9, 16] | Plant response rating, Crabgrass, Large [9, 10] | Crabgrass, Large plant response rating [9, 13]
0: Plant response rating (0 = no effect, 100 = complete control), Nutsedge, Yellow ([1]; 62 g ai/ha, preemergence) | Plant response rating, Nutsedge, Yellow [1, 10] | Plant response rating, Nutsedge, Yellow [1, 12] | Nutsedge, Yellow plant response rating [1, 13] | Plant response rating, Nutsedge, Yellow [1, 14] | Plant response rating, Nutsedge, Yellow [1, 15] | Plant response rating (0 = no effect, 100 = complete control), Cocklebur ([2]; 62 g ai/ha, preemergence) | Plant response rating, Cocklebur [2, 16] | Plant response rating, Cocklebur [2, 10] | Cocklebur plant response rating [2, 13] | Plant response rating (0 = no effect, 100 = complete control), Morningglory ([6]; 62 g ai/ha, preemergence) | Plant response rating, Morningglory [6, 10] | Barnyardgrass plant response rating [8, 24]
20: Nutsedge, Yellow plant response rating [1, 11] | Plant response rating, Cocklebur [2, 17] | Plant response rating, Cocklebur [2, 15] | Plant response rating, Surinam Grass [4, 20] | Crabgrass, Large plant response rating [7, 22] | Plant response rating, Crabgrass, Large [7, 23] | Plant response rating, Crabgrass, Large [9, 15]
50: Plant response rating, Cocklebur [2, 12] | Plant response rating (0 = no effect, 100 = complete control), Johnsongrass ([3]; 62 g ai/ha, preemergence) | Plant response rating, Surinam Grass [4, 18]
10: Plant response rating (0 = no effect, 100 = complete control), Nightshade ([5]; 62 g ai/ha) | Plant response rating, Morningglory [6, 12] | Plant response rating, Morningglory [6, 14] | Plant response rating, Morningglory [6, 15]
65: Plant response rating, Barnyardgrass [8, 27]
45: Plant response rating, Barnyardgrass [8, 26]
80: Plant response rating, Johnsongrass [3, 16] | Johnsongrass plant response rating [3, 11] | Surinam Grass plant response rating [4, 19] | Plant response rating (0 = no effect, 100 = complete control), Crabgrass, Large ([9]; 62 g ai/ha, preemergence)

CCNC(=O)c1cccc(NC(=O)c2cc(C(C)(C)C)nn2CC(F)(F)F)c1 [Compound 31]
0: Plant response rating (0 = no effect, 100 = complete control), Nutsedge, Yellow ([1]; 62 g ai/ha, preemergence) | Plant response rating, Nutsedge, Yellow [1, 10] | Nutsedge, Yellow plant response rating [1, 13] | Plant response rating, Nutsedge, Yellow [1, 14] | Plant response rating, Nutsedge, Yellow [1, 15] | Plant response rating (0 = no effect, 100 = complete control), Cocklebur ([2]; 62 g ai/ha, preemergence) | Plant response rating (0 = no effect, 100 = complete control), Johnsongrass ([3]; 62 g ai/ha, preemergence) | Barnyardgrass plant response rating [8, 24]
70: Plant response rating, Johnsongrass [3, 10] | Morningglory plant response rating [6, 11] | Plant response rating, Barnyardgrass [8, 26] | Crabgrass, Large plant response rating [9, 11]
20: Plant response rating, Cocklebur [2, 16] | Plant response rating, Johnsongrass [3, 17] | Plant response rating, Johnsongrass [3, 15] | Crabgrass, Large plant response rating [7, 22]
50: Plant response rating, Morningglory [6, 14] | Plant response rating, Morningglory [6, 15] | Crabgrass, Large plant response rating [7, 19] | Plant response rating, Crabgrass, Large [9, 15]
90: Johnsongrass plant response rating [3, 13] | Plant response rating (0 = no effect, 100 = complete control), Nightshade ([5]; 62 g ai/ha) | Plant response rating (0 = no effect, 100 = complete control), Crabgrass, Large ([9]; 62 g ai/ha, preemergence)
75: Plant response rating, Barnyardgrass [8, 27]
40: Plant response rating, Cocklebur [2, 10] | Plant response rating, Cocklebur [2, 17] | Plant response rating, Cocklebur [2, 12] | Plant response rating, Cocklebur [2, 15] | Morningglory plant response rating [6, 13]
60: Cocklebur plant response rating [2, 11] | Plant response rating, Surinam Grass [4, 18] | Surinam Grass plant response rating [4, 19] | Plant response rating, Morningglory [6, 12] | Plant response rating, Crabgrass, Large [9, 17] | Plant response rating, Crabgrass, Large [9, 12]
100: Plant response rating, Nightshade [5, 21] | Nightshade plant response rating ([5]; 500 g ai/ha) | Plant response rating, Crabgrass, Large [9, 16] | Plant response rating, Crabgrass, Large [9, 10] | Crabgrass, Large plant response rating [9, 13]
30: Nutsedge, Yellow plant response rating [1, 11] | Plant response rating, Nutsedge, Yellow [1, 12] | Plant response rating, Johnsongrass [3, 16] | Johnsongrass plant response rating [3, 11] | Plant response rating, Johnsongrass [3, 12] | Plant response rating, Surinam Grass [4, 20] | Plant response rating, Crabgrass, Large [7, 23] | Barnyardgrass plant response rating [8, 25]

Cc1nn(C(C)(C)C)nc1C(=O)Nc1cccc(C(=S)N(C)C)c1 [Compound 419]
30: Surinam Grass plant response rating [4, 23] | Crabgrass, Large plant response rating [7, 14]
85: Plant response rating, Nightshade ([5]; 62 g ai/ha, scale 0 to 100)
45: Plant response rating, Cocklebur [2, 30]
15: Plant response rating, Morningglory [6, 28]
40: Crabgrass, Large plant response rating [7, 23]
0: Plant response rating, Nutsedge, Yellow [1, 28] | Plant response rating (0 = no effect, 100 = complete control), Nutsedge, Yellow ([1]; 125 g ai/ha, preemergence) | Plant response rating, Nutsedge, Yellow [1, 29] | Plant response rating, Cocklebur [2, 28]
90: Plant response rating (0 to 100 scale), Surinam Grass [4, 31]
95: Plant response rating (0 = no effect, 100 = complete control), Nightshade ([5]; 125 g ai/ha)
70: Plant response rating, Cocklebur [2, 29]
25: Plant response rating (0 = no effect, 100 = complete control), Cocklebur ([2]; 125 g ai/ha, preemergence) | Plant response rating (0 = no effect, 100 = complete control), Morningglory ([6]; 125 g ai/ha, preemergence)
20: Surinam Grass plant response rating [4, 14]
100: Plant response rating, Johnsongrass [3, 28] | Plant response rating (0 = no effect, 100 = complete control), Johnsongrass ([3]; 125 g ai/ha, preemergence) | Plant response rating, Johnsongrass [3, 30] | Plant response rating, Johnsongrass [3, 29] | Plant response rating, Nightshade ([5]; 500 g ai/ha, scale 0 to 100 (0 no effect, 100 complete control), visual, 12 to 14 days) | Plant response rating, Morningglory [6, 29] | Plant response rating (0 to 100 scale), Crabgrass, Large [7, 31] | Plant response rating, Crabgrass, Large [9, 28] | Plant response rating (0 = no effect, 100 = complete control), Crabgrass, Large ([9]; 125 g ai/ha, preemergence) | Plant response rating, Crabgrass, Large [9, 30] | Plant response rating, Crabgrass, Large [9, 29]
